Data reported in article PMC11851430, “Workflow for E3 Ligase Ligand Validation for PROTAC Development” (ACS Chemical Biology, 2025).

Assays:
Test in all cases: DSF assay
Assay type in all cases: binding
Conditions in all cases: 20 µM compound
MARK4A = biological target: T1, MARK4A (Homo sapiens, UniProt Q96L34)
T1 construct: purchased in-house DSF panel (SGC-style construct names; the trailing A/B is a construct suffix)

CDK2A = biological target: T2, CDK2A (Homo sapiens, UniProt P24941)
T2 construct: purchased in-house DSF panel (SGC-style construct names; the trailing A/B is a construct suffix)

TOPKA = biological target: T3, TOPKA (Homo sapiens, UniProt Q96KB5)
T3 construct: purchased in-house DSF panel (SGC-style construct names; the trailing A/B is a construct suffix)
T3 sequence (Q96KB5 32-322): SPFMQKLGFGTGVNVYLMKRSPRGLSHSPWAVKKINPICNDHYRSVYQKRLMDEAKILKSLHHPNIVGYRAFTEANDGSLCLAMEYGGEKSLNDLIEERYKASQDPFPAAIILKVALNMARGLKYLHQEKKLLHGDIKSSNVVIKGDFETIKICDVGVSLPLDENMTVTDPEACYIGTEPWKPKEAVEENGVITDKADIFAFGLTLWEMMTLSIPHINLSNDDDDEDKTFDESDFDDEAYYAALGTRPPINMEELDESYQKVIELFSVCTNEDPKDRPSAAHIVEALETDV

CASKA = biological target: T4, CASKA (Homo sapiens, UniProt O14936)
T4 construct: purchased in-house DSF panel (SGC-style construct names; the trailing A/B is a construct suffix)
T4 sequence (O14936 1-337): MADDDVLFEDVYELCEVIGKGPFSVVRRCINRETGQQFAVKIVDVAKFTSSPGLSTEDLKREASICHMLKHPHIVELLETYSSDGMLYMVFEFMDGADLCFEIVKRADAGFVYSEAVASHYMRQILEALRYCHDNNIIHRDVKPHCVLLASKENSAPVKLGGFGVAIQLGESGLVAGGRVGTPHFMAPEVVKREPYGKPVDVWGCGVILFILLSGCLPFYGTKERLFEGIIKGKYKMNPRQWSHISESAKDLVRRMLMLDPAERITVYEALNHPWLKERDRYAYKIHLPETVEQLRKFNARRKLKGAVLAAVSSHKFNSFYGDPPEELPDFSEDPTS

OSR1A = biological target: T5, OSR1A (Homo sapiens, UniProt O95747)
T5 construct: purchased in-house DSF panel (SGC-style construct names; the trailing A/B is a construct suffix)
T5 sequence (O95747 17-291): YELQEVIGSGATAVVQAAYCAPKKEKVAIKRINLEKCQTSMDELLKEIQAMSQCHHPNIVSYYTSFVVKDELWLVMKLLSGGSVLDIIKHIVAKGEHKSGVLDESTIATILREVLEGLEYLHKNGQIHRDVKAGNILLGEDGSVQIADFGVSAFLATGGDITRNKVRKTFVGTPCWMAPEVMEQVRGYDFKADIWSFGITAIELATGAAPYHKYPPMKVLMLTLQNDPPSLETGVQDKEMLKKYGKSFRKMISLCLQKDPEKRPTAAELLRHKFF

ABL1A = biological target: T6, ABL1A (Homo sapiens, UniProt P00519)
T6 construct: purchased in-house DSF panel (SGC-style construct names; the trailing A/B is a construct suffix)
T6 sequence (P00519 229-512): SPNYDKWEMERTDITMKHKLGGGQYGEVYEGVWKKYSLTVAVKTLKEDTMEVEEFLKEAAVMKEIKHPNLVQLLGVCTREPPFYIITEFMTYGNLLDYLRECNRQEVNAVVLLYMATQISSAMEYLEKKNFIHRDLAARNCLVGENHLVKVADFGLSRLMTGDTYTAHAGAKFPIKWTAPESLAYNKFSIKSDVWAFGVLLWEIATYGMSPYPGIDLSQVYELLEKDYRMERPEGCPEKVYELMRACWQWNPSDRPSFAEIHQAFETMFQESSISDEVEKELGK

ULK3A = biological target: T7, ULK3A (Homo sapiens, UniProt Q6PHR2)
T7 construct: purchased in-house DSF panel (SGC-style construct names; the trailing A/B is a construct suffix)
T7 sequence (Q6PHR2 1-277): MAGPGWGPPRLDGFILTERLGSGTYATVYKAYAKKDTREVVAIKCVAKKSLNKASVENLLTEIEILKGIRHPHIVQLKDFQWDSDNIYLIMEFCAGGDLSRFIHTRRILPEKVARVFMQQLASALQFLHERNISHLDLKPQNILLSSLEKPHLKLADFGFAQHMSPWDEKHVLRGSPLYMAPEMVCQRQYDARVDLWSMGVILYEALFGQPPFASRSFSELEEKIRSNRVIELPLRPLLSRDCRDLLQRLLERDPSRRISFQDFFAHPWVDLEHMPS

DCAMKL1A = biological target: T8, DCAMKL1A (Homo sapiens, UniProt O15075)
T8 construct: purchased in-house DSF panel (SGC-style construct names; the trailing A/B is a construct suffix)
T8 sequence (O15075 372-649): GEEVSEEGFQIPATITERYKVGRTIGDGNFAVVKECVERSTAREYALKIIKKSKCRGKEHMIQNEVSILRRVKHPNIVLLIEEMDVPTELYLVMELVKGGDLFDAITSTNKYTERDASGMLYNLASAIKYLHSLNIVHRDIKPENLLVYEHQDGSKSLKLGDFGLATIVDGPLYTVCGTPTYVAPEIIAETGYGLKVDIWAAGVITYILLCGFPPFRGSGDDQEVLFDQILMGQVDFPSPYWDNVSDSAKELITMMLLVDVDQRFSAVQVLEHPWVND

PCTK1A = biological target: T9, PCTK1A (Homo sapiens, UniProt Q00536)
T9 construct: purchased in-house DSF panel (SGC-style construct names; the trailing A/B is a construct suffix)
T9 sequence (Q00536 163-478): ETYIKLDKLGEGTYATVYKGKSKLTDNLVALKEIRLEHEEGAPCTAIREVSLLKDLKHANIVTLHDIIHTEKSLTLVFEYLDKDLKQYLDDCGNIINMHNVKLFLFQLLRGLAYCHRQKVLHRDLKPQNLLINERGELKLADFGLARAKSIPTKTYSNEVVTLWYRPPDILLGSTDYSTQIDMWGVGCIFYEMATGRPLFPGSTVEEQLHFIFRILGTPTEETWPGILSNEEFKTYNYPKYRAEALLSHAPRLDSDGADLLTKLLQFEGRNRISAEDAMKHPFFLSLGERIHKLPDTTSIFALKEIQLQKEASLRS

T1 sequence (Q96L34 59-310): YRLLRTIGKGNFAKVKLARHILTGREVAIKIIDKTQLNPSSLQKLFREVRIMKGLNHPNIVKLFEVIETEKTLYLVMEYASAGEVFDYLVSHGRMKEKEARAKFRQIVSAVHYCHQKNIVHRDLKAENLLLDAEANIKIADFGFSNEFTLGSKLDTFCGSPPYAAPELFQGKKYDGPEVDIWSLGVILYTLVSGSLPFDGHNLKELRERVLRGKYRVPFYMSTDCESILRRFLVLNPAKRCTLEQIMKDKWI

ΔTm at 20 µM (MARK4A) [°C]	ΔTm at 20 µM (CDK2A) [°C]	ΔTm at 20 µM (TOPKA) [°C]	ΔTm at 20 µM (CASKA) [°C]	ΔTm at 20 µM (OSR1A) [°C]	ΔTm at 20 µM (ABL1A) [°C]	ΔTm at 20 µM (ULK3A) [°C]	ΔTm at 20 µM (DCAMKL1A) [°C]	ΔTm at 20 µM (PCTK1A) [°C]	SMILES
6.15	12.5	2.93	1.91	3.5	7.27	15.4	0.68	5.96	CCOC(=O)c1cc(Nc2cc(C3CC3)[nH]n2)nc(Nc2ccc(CC#N)cc2)n1 [compound 5]
6.16	7.79	0.95	-0.0121	3.71	11.3	18.5	0.22	4.55	CC(C)(C)OC(=O)NCCOCCOCCOCCOCCC(=O)N1CCN(c2cc(Nc3cc(C4CC4)[nH]n3)nc(Nc3ccc(CC#N)cc3)n2)CC1 [4-L]
3.21	7.86	1.75	1.29	3.94	6.31	13.3	4.7	4.53	CC(C)(C)OC(=O)NCCCOCCOCCOCCCNC(=O)c1cc(Nc2cc(C3CC3)[nH]n2)nc(Nc2ccc(CC#N)cc2)n1 [5-L]
